Test results from PubChem BioAssay AID256 (DTP/NCI, 2004).
Values joined by “and” are separate entries in the source; they are usually repeats but may differ in a detail not shown here. Equal entries are not always repeated. Inconclusive results and toxic doses are left out. Rule for the calls: active = survival T/C of 150% or more; inactive = T/C below 125% in these data.

Test system: CD2F1 mice, L1210 leukemia ip, survival T/C
Test: NCI In Vivo Anticancer Drug Screen. Data for tumor model L1210 Leukemia (intraperitoneal) in CD2F1 (CDF1) mice
Conditions: higher = longer survival
In short: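 Antitumor effect is scored in animals hosting a serially transplanted tumor. Values compare compound-dosed animals against vehicle-only controls as a simple quotient.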

[1] = endpoint: mean survival time, dose: 100.0 mg/kg/injection, schedule: Q01DX009 (ip), vehicle: saline with Tween-80
[2] = endpoint: mean survival time, dose: 200.0 mg/kg/injection, schedule: Q01DX009 (ip), vehicle: saline with Tween-80
[3] = endpoint: mean survival time, dose: 200.0 mg/kg/injection, schedule: Q01DX009 (ip), vehicle: saline
[4] = endpoint: mean survival time, dose: 200.0 mg/kg/injection, schedule: Q04DX003 (ip), vehicle: saline with Tween-80
[5] = endpoint: mean survival time, dose: 400.0 mg/kg/injection, schedule: Q01DX009 (ip), vehicle: saline with Tween-80
[6] = endpoint: mean survival time, dose: 100.0 mg/kg/injection, schedule: Q04DX003 (ip), vehicle: saline with Tween-80
[7] = endpoint: mean survival time, dose: 100.0 mg/kg/injection, schedule: Q01DX001 (ip), vehicle: saline with Tween-80
[8] = endpoint: mean survival time, dose: 200.0 mg/kg/injection, schedule: Q01DX001 (ip), vehicle: saline with Tween-80
[9] = endpoint: mean survival time, dose: 400.0 mg/kg/injection, schedule: Q04DX003 (ip), vehicle: saline with Tween-80

Measured: T/C

O=C1NC(=O)NC(C(=O)O)N1
inactive: endpoint: mean survival time, dose: 1.56 mg/kg/injection, schedule: Q01DX009 (ip), vehicle: DMSO 92 % of control | endpoint: mean survival time, dose: 3.12 mg/kg/injection, schedule: Q01DX009 (ip), vehicle: DMSO 96 % of control | endpoint: mean survival time, dose: 6.25 mg/kg/injection, schedule: Q01DX009 (ip), vehicle: DMSO 96 % of control | endpoint: mean survival time, dose: 12.5 mg/kg/injection, schedule: Q01DX009 (ip), vehicle: DMSO 94 % of control and 98 % of control | endpoint: mean survival time, dose: 25.0 mg/kg/injection, schedule: Q01DX009 (ip), vehicle: DMSO 97 % of control and 98 % of control and 101 % of control | endpoint: mean survival time, dose: 50.0 mg/kg/injection, schedule: Q01DX009 (ip), vehicle: DMSO 97 % of control and 100 % of control | endpoint: mean survival time, dose: 100.0 mg/kg/injection, schedule: Q01DX009 (ip), vehicle: DMSO 94 % of control and 97 % of control | endpoint: mean survival time, dose: 200.0 mg/kg/injection, schedule: Q01DX009 (ip), vehicle: DMSO 102 % of control | endpoint: mean survival time, dose: 400.0 mg/kg/injection, schedule: Q01DX009 (ip), vehicle: DMSO 98 % of control

O=C1C2=C(CCCC2)CN1c1ccccc1
inactive: endpoint: mean survival time, dose: 50.0 mg/kg/injection, schedule: Q01DX009 (ip), vehicle: saline with Tween-80 98 % of control | [1] 98 % of control | [2] 107 % of control

NC1=NC(=O)N2CC12 (stereo not given)
inactive: endpoint: mean survival time, dose: 12.5 mg/kg/injection, schedule: Q01DX009 (ip), vehicle: other 100 % of control | endpoint: mean survival time, dose: 12.5 mg/kg/injection, schedule: Q01DX009 (ip), vehicle: saline 107 % of control | endpoint: mean survival time, dose: 25.0 mg/kg/injection, schedule: Q01DX009 (ip), vehicle: other 100 % of control | endpoint: mean survival time, dose: 25.0 mg/kg/injection, schedule: Q01DX009 (ip), vehicle: saline 106 % of control and 110 % of control | endpoint: mean survival time, dose: 50.0 mg/kg/injection, schedule: Q01DX009 (ip), vehicle: other 105 % of control | endpoint: mean survival time, dose: 50.0 mg/kg/injection, schedule: Q01DX009 (ip), vehicle: saline 115 % of control and 110 % of control
active: [3] 156 % of control and 173 % of control

OCC(O)C(O)C(O)C(O)CO (stereo not given)
inactive: [1] 98 % of control | endpoint: mean survival time, dose: 100.0 mg/kg/injection, schedule: Q04DX003 (ip), vehicle: saline 96 % of control | [4] 97 % of control | endpoint: mean survival time, dose: 200.0 mg/kg/injection, schedule: Q04DX003 (ip), vehicle: saline 98 % of control | [5] 98 % of control | endpoint: mean survival time, dose: 400.0 mg/kg/injection, schedule: Q04DX003 (ip), vehicle: saline 96 % of control | endpoint: median survival time, dose: 75.0 mg/kg/injection, schedule: Q01DX009 (ip), vehicle: saline with Tween-80 100 % of control | endpoint: median survival time, dose: 150.0 mg/kg/injection, schedule: Q01DX009 (ip), vehicle: saline with Tween-80 97 % of control | endpoint: median survival time, dose: 600.0 mg/kg/injection, schedule: Q01DX009 (ip), vehicle: saline with Tween-80 100 % of control

COC(=O)/C(=C1/OC(=O)C(c2ccccc2)=C1O)c1ccccc1
inactive: endpoint: mean survival time, dose: 25.0 mg/kg/injection, schedule: Q04DX003 (ip), vehicle: saline with Tween-80 91 % of control | endpoint: mean survival time, dose: 50.0 mg/kg/injection, schedule: Q04DX003 (ip), vehicle: saline with Tween-80 100 % of control | [6] 105 % of control

Oc1ccccc1OCCOCCOc1ccccc1O
inactive: endpoint: mean survival time, dose: 50.0 mg/kg/injection, schedule: Q04DX002 (ip), vehicle: other 100 % of control | endpoint: mean survival time, dose: 100.0 mg/kg/injection, schedule: Q04DX002 (ip), vehicle: other 88 % of control | endpoint: mean survival time, dose: 200.0 mg/kg/injection, schedule: Q04DX002 (ip), vehicle: other 103 % of control | endpoint: mean survival time, dose: 400.0 mg/kg/injection, schedule: Q04DX002 (ip), vehicle: other 103 % of control

CCC(Cc1ccccc1)C1=NC(C)(C)CC(C)O1 (stereo not given)
inactive: [7] 97 % of control | [8] 89 % of control

O=C(O)/C=C/c1ccco1
inactive: [1] 95 % of control | [6] 101 % of control | [2] 94 % of control | [4] 98 % of control | [5] 96 % of control | [9] 108 % of control

C[n+]1ccccc1NC(=O)c1ccccc1
inactive: [6] 98 % of control | [4] 95 % of control | [9] 88 % of control

CC(C)C(=O)C(C)(C)C(=O)N1CCCC1
inactive: endpoint: mean survival time, dose: 100.0 mg/kg/injection, schedule: Q01DX009 (ip), vehicle: saline 92 % of control | [3] 103 % of control | endpoint: mean survival time, dose: 400.0 mg/kg/injection, schedule: Q01DX009 (ip), vehicle: saline 91 % of control

CCCCCCCCCCCCCCCCOc1ccc(C(=O)OC)cc1NS(=O)(=O)c1ccc(C(=O)O)cc1
inactive: [7] 96 % of control | endpoint: mean survival time, dose: 100.0 mg/kg/injection, schedule: Q01DX009 (ip), vehicle: Klucel (hydroxypropylcellulose) (HPC) 98 % of control | [8] 98 % of control | endpoint: mean survival time, dose: 200.0 mg/kg/injection, schedule: Q01DX009 (ip), vehicle: Klucel (hydroxypropylcellulose) (HPC) 95 % of control | endpoint: mean survival time, dose: 400.0 mg/kg/injection, schedule: Q01DX001 (ip), vehicle: saline with Tween-80 91 % of control | endpoint: mean survival time, dose: 400.0 mg/kg/injection, schedule: Q01DX009 (ip), vehicle: Klucel (hydroxypropylcellulose) (HPC) 98 % of control
